Measurements as given in ChEMBL document CHEMBL5150062, “Computational design, synthesis and biological evaluation of PDE5 inhibitors based on N2,N4-diaminoquinazoline and N2,N6-diaminopurine scaffolds” (Bioorg Med Chem, 2022).
Values after ≈ are worked out from the molar mass of the structure shown.

Legend:
[1] = biological target: T1, cGMP-specific 3',5'-cyclic phosphodiesterase (Homo sapiens, UniProt O76074); assay: Inhibition of human PDE5 using [3H]cGMP as substrate at 1 uM incubated for 10 mins by liquid scintillation counter analysis relative to control
[2] = biological target: T1, cGMP-specific 3',5'-cyclic phosphodiesterase; assay: Inhibition of human PDE5 using [3H]cGMP as substrate incubated for 10 mins by liquid scintillation counter analysis
[3] = 1-Octanol/PBS partition coefficient, logD of the compound at pH 7.4 incubated for 7 hrs by shake flask technique based HPLC-UV analysis; type: physicochemical
[4] = species on record: Bos taurus; assay: Inhibition of bovine heart PDE1 using [3H]cGMP as substrate at 10 uM incubated for 10 mins by liquid scintillation counter analysis relative to control
[5] = Aqueous solubility of the compound in pH 7.4 PBS measured after 7 hrs by HPLC-UV analysis; type: physicochemical; settings: for solubility at 7 h: PBS, pH 7.4
[6] = Selectivity index, ratio of IC50 for inhibition of bovine heart PDE1to IC50 for inhibition of human PDE5
[7] = Inhibition of bovine heart PDE1 using [3H]cGMP as substrate incubated for 10 mins by liquid scintillation counter analysis; design: species or system Bos taurus

Compound	inhibition [1] [%]	IC50 [2] [nM]	further results
CN(C)CCNc1nc(Nc2cccc(S(=O)(=O)N3CCN(C)CC3)c2)nc2ccccc12	75.3	5280	–
CN1CCN(S(=O)(=O)c2ccc(Nc3nc(NCc4ccccc4)c4ncn(C)c4n3)cc2)CC1	97.3	38400	–
CC(C)CNc1nc(Nc2cccc(S(=O)(=O)N3CCN(C)CC3)c2)nc2c1ncn2C	91.8	33300	–
CN(C)CCNc1nc(Nc2cccc(S(N)(=O)=O)c2)nc2ccccc12	72.2	9390	–
Cn1cnc2c(NCc3ccccc3)nc(Nc3ccc(S(N)(=O)=O)cc3)nc21	96.5	23000	–
CCCNc1nc(Nc2cccc(S(=O)(=O)N3CCN(C)CC3)c2)nc2c1ncn2C	93.6	43200	–
COc1cc2nc(Nc3cccc(S(=O)(=O)N4CCN(C)CC4)c3)nc(NC3CCN(C(C)C)CC3)c2cc1OC	18.5	–	–
COc1cc2nc(Nc3ccc(S(N)(=O)=O)cc3)nc(NCC(C)C)c2cc1OC	94.6	3970	–
CN1CCN(S(=O)(=O)c2cccc(Nc3nc(NCc4ccccc4)c4ncn(C)c4n3)c2)CC1	69	–	–
CC(C)N1CCC(Nc2nc(Nc3cccc(S(N)(=O)=O)c3)nc3[nH]cnc23)CC1	32.7	–	–
CCCc1nn(C)c2c(=O)[nH]c(-c3cc(S(=O)(=O)N4CCN(C)CC4)ccc3OCC)nc12	–	–	logD at 7 h [3]: 2.69; solubility ([5]; buffer, pH 7.4, 7 h): 180 µg/mL (≈ 379 µM)
CCCNc1nc(Nc2ccc(S(=O)(=O)N3CCN(C)CC3)cc2)nc2c1ncn2C	93.6	18900	–
Cn1cnc2c(NCc3ccccc3)nc(Nc3cccc(S(N)(=O)=O)c3)nc21	86.1	4460	–
CC(C)CNc1nc(Nc2ccc(S(=O)(=O)N3CCN(C)CC3)cc2)nc2c1ncn2C	96	28500	–
COc1cc2nc(Nc3cccc(S(N)(=O)=O)c3)nc(NCC(C)C)c2cc1OC	94.9	5230	–

Second part, led by results:

inhibition [1] [%]	IC50 [2] [nM]	Compound	further results
93.9	520	CN1CCN(S(=O)(=O)c2cccc(Nc3nc(NCc4cccs4)c4ccccc4n3)c2)CC1	–
93.7	1640	COc1cc2nc(Nc3cccc(S(N)(=O)=O)c3)nc(NC3CCN(Cc4ccccc4)CC3)c2cc1OC	–
93.6	150	CC(C)N1CCC(Nc2nc(Nc3cccc(S(=O)(=O)N4CCN(C)CC4)c3)nc3ccccc23)CC1	logD at 7 h [3]: 2.15; inhibition [4]: 28.2%; solubility at 7 h [5]: 1770 µg/mL (≈ 3380 µM)
79.3	3410	COc1cc2nc(Nc3cccc(S(N)(=O)=O)c3)nc(NC3CCN(C(C)C)CC3)c2cc1OC	–
96.5	490	CN1CCN(S(=O)(=O)c2ccc(Nc3nc(NCc4ccccc4)c4ccccc4n3)cc2)CC1	–
96.3	1030	CC(C)N1CCC(Nc2nc(Nc3cccc(S(N)(=O)=O)c3)nc3ccccc23)CC1	–
101	100	NS(=O)(=O)c1cccc(Nc2nc(NCc3ccccc3)c3ccccc3n2)c1	logD at 7 h [3]: 3.87; Ratio IC50 [6]: 100; IC50 [7]: 11800 nM; inhibition [4]: 73.9%; solubility at 7 h [5]: 2.1 µg/mL (≈ 5.18 µM)
95.6	410	CCCNc1nc(Nc2ccc(S(=O)(=O)N3CCN(C)CC3)cc2)nc2ccccc12	logD at 7 h [3]: 3.92; inhibition [4]: 46.8%; solubility at 7 h [5]: 0.1 µg/mL (≈ 0.227 µM)
91.6	1440	CCCNc1nc(Nc2cccc(S(N)(=O)=O)c2)nc2cc(OC)c(OC)cc12	–
99	360	CC(C)CNc1nc(Nc2ccc(S(=O)(=O)N3CCN(C)CC3)cc2)nc2ccccc12	logD at 7 h [3]: 3.68; inhibition [4]: 44.8%; solubility at 7 h [5]: 3 µg/mL (≈ 6.6 µM)
99.3	2020	CN1CCN(S(=O)(=O)c2cccc(Nc3nc(NCc4ccccc4)c4nc[nH]c4n3)c2)CC1	–
96.9	600	CCCNc1nc(Nc2cccc(S(=O)(=O)N3CCN(C)CC3)c2)nc2ccccc12	–
98.3	500	CN1CCN(S(=O)(=O)c2cccc(Nc3nc(NCc4ccccc4)c4ccccc4n3)c2)CC1	–
93.4	220	NS(=O)(=O)c1cccc(Nc2nc(NC3CCN(Cc4ccccc4)CC3)c3ccccc3n2)c1	logD at 7 h [3]: 3.37; inhibition [4]: 61.7%; solubility at 7 h [5]: 4.2 µg/mL (≈ 8.6 µM)
97.3	430	CC(C)CNc1nc(Nc2cccc(S(=O)(=O)N3CCN(C)CC3)c2)nc2ccccc12	logD at 7 h [3]: 3.55; inhibition [4]: 67.2%; solubility at 7 h [5]: 0.6 µg/mL (≈ 1.32 µM)
94.3	290	NS(=O)(=O)c1cccc(Nc2nc(NC3CCN(Cc4ccccc4)CC3)c3nc[nH]c3n2)c1	logD at 7 h [3]: 2.16; inhibition [4]: 31.2%; solubility at 7 h [5]: 150 µg/mL (≈ 313 µM)
